Test results taken from patent US20240124510A1, “Cyclic Glycoaminoacid Derivatives” (TFCHEM, priority 2021, published 2024).
Where “and” joins values, the source holds several entries; their conditions need not be identical. Equal entries are not always repeated. Where two headings read alike, the source gives them in different places.

How the values were obtained:
[1] = tested on: normal human dermal fibroblasts (NHDF); test: Signalling pathway analysis (Ingenuity Pathway Analysis, activation z-score); conditions: for Activation z- score: 2 mg/ml on NHDF
Source text: • Results are considered and presented per gene (and not probe). A probe set is a collection of probes designed to interrogate a given sequence of a gene. […] Gene Ontology database has been more specifically used for the data interpretation. DAVID functional annotation part was used to cluster modulated genes into significant biological processes. […] DAVID database uses the Gene Ontology consortium (http://www.geneontology.org) vocabularies (GO terms) to describe gene products in terms of their associated biological processes. Among them, only biological processes with p-value ≤0.05 were taken into account. • Signal transduction pathway analsis: The results were then processed with IPA (Ingenuity Pathway Analysis, Qiagen®) software to identify signal transduction pathways modulated by each treatment. This software takes into account the Fold Change values of each gene and, when there is enough information, the direction of modulation of the signal transduction pathways can be identified. The relevance of the effect of each treatment on a given pathway was quantified by z-score. The z-score predicts the directional change on that effect.
A more advanced bioinformatics analysis was performed using the Ingenuity Pathway Analysis software (IPA from Qiagen®). This analysis allows the identification of the impacted signalling pathways and predicts their modulation. The modulation is a stimulation when the Activation z-score is a positive value (Table 11) and an inhibition when the Activation z-score is a negative value (Table 12).

procollagen I = test: Extracellular secretion of procollagen I by preadipocytes in inflammatory condition (ELISA); assay type: cell-based, human; conditions: for Procollagen I secretion, Mean / Procollagen I secretion, Values: normalized by cells number (DAPI); for Procollagen I secretion, Values: individual values; for Procollagen I secretion compared to the AcMC control condition fixed at 100%: preadipocytes
Method: Preadipocytes have been isolated from human female hypodermis (body mass index <30 kg/m2 and <45 years old). Preadipocytes have been cultured for 24 h in 100 μl of DMEM-10% Fetal Bovine Serum (FBS) in 96-well plates. Then cells were treated to induce their differentiation in a classical or an inflammatory environment for 13 days.
To induce the preadipocytes differentiation cells were incubated in a proadipogenic cocktail (PAC) including insulin, glucocorticoid, 3-isobutyl-1-methylxanthine (IBMX), and thiazolinedione in DMEM.
To induce a fibro-inflammatory environment, cells were treated with an activated human macrophage-conditioned medium (AcMC) prepared in RPMI medium. A treatment with Dexamethasone (DXM) at 100 nM was used as anti-inflammatory response control. At D0: preadipocytes have been treated in the following conditions: • “Undifferentiation”: DMEM+¼ RPMI medium • “Differentiation”: PAC+¼ RPMI medium • “AcMC” i.e. inflammatory condition: PAC+¼ AcMC • “AcMC+DXM”: PAC+[…] AcMC+anti-inflammatory DXM at 100 nM • “AcMc+compounds”: PAC+14 AcMC+compounds to be tested
All conditions have been performed in triplicate. The medium has been changed every 2 days for 13 days.
At D14: during the last 24 h of culture, the medium has been replaced by DMEM/F12 medium in all conditions, to collect cells' secretions.
After 13 days, the 24 h culture media of the different conditions have been collected at the end of the treatment period. The concentrations of IL-6, procollagen I and MCP1 have been evaluated by ELISA assays using specific kits (for IL-6: DY206, DuoSet ELISA, R&D Systems; for Procollagen I: DY6220-05, DuoSet ELISA, R&D Systems; for MCP1: DY279-05 DuoSet ELISA, R&D Systems) according to the manufacture's recommendations. Values have been normalized to the cell number determined by DAPI staining.
Extracellular secretions of procollagen I by preadipocytes in inflammatory condition Quantity of procollagen secreted in medium was measured and normalized by cell number in each culture condition. Data are represented in percentage of proinflammatory control conditions (AcMC condition).

[2] = tested on: normal human dermal fibroblasts (NHDF); test: Protection of NHDF under UVA irradiation, MTT reduction assay; assay type: cell-based
Method: The protective effects of compound 6 was assessed in normal human dermal fibroblasts (NHDF). The viability of UVA-irradiated NHDF using a standard MTT reduction assay was tested. Prior to these assays, a preliminary cytotoxicity assay was performed on NHDF, using a standard WST-8 reduction assay and morphological observations with a microscope, in order to determine the concentrations to be tested.
• Cell type: NHDF, Bioalternatives reference PF2 used at the 8th passage • Culture conditions: 37° C., 5% CO2 • Culture medium: DMEM supplemented with L-glutamine 2 mM, Penicillin 50 U/ml • Streptomycin 50 μg/ml, Fetal calf serum (FCS) 10% • Irradiation medium: EBSS supplemented with CaCl2 0.2 g/l, MgSO4 0.2 g/l • Test compound: the compound 6 (MM=356.3 g/mol) was diluted in culture medium at final concentration of 1.25 and 2.5 mg/ml
Fibroblasts were seeded in 96-well plates and cultured in culture medium for 24 hours. The medium was then replaced by culture medium containing or not (irradiated control) the test compounds and the cells were pre-incubated for 24 hours. After pre-incubation, the medium was removed and replaced by irradiation medium and the cells were irradiated with 35 J/cm^2. The lamp used was a SOL500 Sun Simulator equipped with an H1 filter (Dr. Hönle, AG). After irradiation, the medium was removed and replaced by assay medium containing or not (irradiated control) the test compounds and the cells were incubated for 24 hours. A non-irradiated control condition was performed in parallel. All experimental conditions were performed in n=5, except for the control conditions in n=12.
At the end of incubation, the cells were incubated with MTT (tetrazolium salt) reduced in blue formazan crystals by succinate dehydrogenase (mitochondrial enzyme). This transformation is proportional to the enzyme activity. After cell dissociation and formazan crystal solubilization using DMSO, the optical density (OD) of the extracts at 540 nm, proportional to the number of living cells and their metabolic activity, was recorded with a microplate reader (VERSAmax, Molecular Devices).
Raw data were analyzed using Microsoft Excel© software. The inter-group comparisons were performed by an unpaired Student's t-test.
The standard error of the mean (sem) is a measure of how far the sample mean is likely to be from the true population mean. The sem is calculated as the standard deviation (sd) divided by the square root of sample size (n). Standard error of the mean: sem=sd/√n Percentage of viability: viability (%)=(OD sample/OD control)×100
The cell viability (OD 540 nm) from irradiated culture added with tested compound was compared with irradiated control culture and the percentage of viability was calculated.

N[C@H]1CCCN(CC(F)(F)[C@]2(O)O[C@H](CO)[C@H](O)[C@H](O)[C@H]2O)C1=O [Compound 6]
Activation z- score ([1]; Diseases or Functions Annotation: Differentiation of adipocytes): 0.545
Activation z- score ([1]; Diseases or Functions Annotation: Metabolism of cholesterol): 1.421
Activation z- score ([1]; Diseases or Functions Annotation: Synthesis of cholesterol): 0.998
Activation z- score ([1]; Diseases or Functions Annotation: Synthesis of lipids, z-score >0 = increased): 1.380
Regulation of fibrogenesis, tensile strength of skin, synthesis of ROS, inflammatory response and chronic inflammatory disorder at a transcriptional level ([1]; treatment of NHDF): down regulation
Regulation of lipid and cholesterol synthesis and differentiation of adipocytes at a transcriptional level ([1]; treatment of NHDF): up regulation
Procollagen I secretion, Mean (procollagen I; AcMC + 1 mg/ml): 49.9 % of AcMC condition
Procollagen I secretion, Values (procollagen I; AcMC + 1 mg/ml): 39.3 % of AcMC condition and 57.7 % of AcMC condition and 52.7 % of AcMC condition
Procollagen I secretion, Mean (procollagen I; AcMC + 2 mg/ml): 46.2 % of AcMC condition
Procollagen I secretion, Values (procollagen I; AcMC + 2 mg/ml): 47.0 % of AcMC condition and 40.2 % of AcMC condition and 51.2 % of AcMC condition
Procollagen I secretion compared to the AcMC control condition fixed at 100% (procollagen I; 1 mg/ml): 49.9%
Procollagen I secretion compared to the AcMC control condition fixed at 100% (procollagen I; 2 mg/ml): 46.2%
Mean OD (540 nm) ([2]; 1.25 mg/ml, UVA 35 J/cm^2, MTT): 0.13
Mean OD (540 nm) ([2]; 2.5 mg/ml, UVA 35 J/cm^2, MTT): 0.15
viability at 1250 µg/mL ([2]; Homo sapiens, light or radiation study, 1.25 mg/ml, UVA 35 J/cm^2, MTT, read-out: % Irradiated control (viability)): 116%
viability at 2500 µg/mL ([2]; Homo sapiens, light or radiation study, 2.5 mg/ml, UVA 35 J/cm^2, MTT, read-out: % Irradiated control (viability)): 130%
viability at 2500 µg/mL ([2]; Homo sapiens, light or radiation study, UVA 35 J/cm2, 2.5 mg/ml, read-out: Cell viability, % of the irradiated control): 130%
